Measured values as given in paper PMC6370856, “Peptidyl prolyl cis/trans isomerase activity on the cell surface correlates with extracellular matrix development” (Communications Biology, 2019).

Columns and labels:
[1] = system: PBMC samples from healthy donors, mixed; experiment: PACS in a two-way mixed lymphocyte reaction; assay type: cell-based, human; conditions: for effect on PACS in two-way mixed lymphocyte reaction: PBMCs treated with immunosuppressive drug; for cell surface PPIase activity k, Exp. 1 / cell surface PPIase activity k, Exp. 2 / cell surface PPIase activity k, Exp. 3 / cell surface PPIase activity k, Exp. 4 / cell surface PPIase activity k, Mean: 24 hours
Method: PACS were measured with four PBMC samples from healthy donors or with all six different combinations. […] After 24 h, diminished activity was detected in all combinations (Fig. 6d). For two combinations, no trace of activity could be detected, resembling the results from some primary samples of leukemia cells.
Mixed lymphocyte reaction is a routine assay used to measure the safety of implantable materials and the effect of immunosuppressive treatments. The PACS assay could become an alternative test, within a relatively short period of time, avoiding the use of biochemical reagents such as antibodies.
The assay was performed in a cold room. If there was no additional description, the assays were performed in CO2-independent medium supplemented with 10% (v/v) h.i. FBS (medium-h.i. FBS) and 2mM L-glutamine. […] FBS to a final concentration of 120 µg mL^−1 (two times substrate stock). α-Chymotrypsin was prepared freshly. Fifteen micrograms of α-chymotrypsin was dissolved in 2 mL medium-h.i. FBS, and the pH was adjusted with 10 µL 1 M NaOH. Five millimole CsA, SLF, and CsA/SLF mixture were prepared in DMSO.
One or more flasks of cells (5 mL per flask, depending on the maximum culture density of each cell line) were harvested by centrifuging at 1000 rpm for 3 min. To remove PPIases from the supernatant originating from the culture, cells were washed one time with 2 mL CO2-independent medium and were resuspended in 1.6 mL of CO2-independent medium with substrate. The cells were centrifuged again, and then 800 µL of the supernatant was taken. The residual volume containing cells was suspended. Nineteen microliters of the cells or supernatant was pipetted to a non-binding 96-well microplate to measure PPIase activity. Four different conditions were performed. […] The plate was kept for 5 min without agitation. The activity measurements were triggered by adding 20 µL of α-chymotrypsin at time 0 min, followed by 1.5 min agitation, and the reaction was stopped after 2 min with 80 µL 20% acetic acid, followed by 15 rounds of up and down pipetting mixing. Four independent experiments were performed on the same day.

[2] = system: mixture of Jurkat T lymphocyte and the plasma protein fibrinogen; experiment: Viscosity/shear rate measurement of Jurkat cells in fibrinogen solution; assay type: cell-based
Source text: Since PPIases can catalyze the dynamic rearrangement of the dense ECM polymer network, we speculated that PPIases could also affect the dynamic interaction between cells and the ECM. Probing the influence of transient prolyl isomerization on cell–ECM interaction is difficult. Studying cell adhesion by the treatment of PPIase inhibitors cannot distinguish extracellular and intracellular factors as well as receptor-mediated signaling due to the long assay time. In order to reflect the highly dynamic process, we measured the viscosity of plasma protein solution with cells. Blood is a shear-thinning non-Newtonian fluid, and its viscosity is largely affected by the interaction between cells and plasma proteins, for example, the coagulation process. We investigated whether the catalyzed isomerization could also influence the interaction between blood cells and plasma proteins, thus affecting the viscosity. We performed viscosity/shear rate measurements using a mixture of Jurkat T lymphocyte and the plasma protein fibrinogen.
The machine used for viscosity is the same as for stiffness measurements. To 30 µL of 4 mg mL^−1 fibrinogen, an equal volume of Jurkat cells (8 × 10^7 mL^−1 in PBS, washed two times with PBS before used; Jurkat cells ocupated around 20% of the volume) was added. The mixture was pipetted up and down six times, kept on ice for 10 min, and then transferred to the rheometer plater (25 °C) for measurements. The plate temperature was raised to 37 °C. The measurement was performed by increasing shear rate ramp liner from 100 to 1000 s^−1. Hundred data points were collected during the measurements. For each condition, two independent experiments were performed (Fig. 1c and Supplementary Fig. 3).

Pin1 = target: T1, Pin1 (Homo sapiens, UniProt Q13526); experiment: Liquid chromatography-based protease-coupled PPIase activity assay, Pin1 (nagarse); assay type: biochemical
T1 construct: host or cells: Escherichia coli BL21 (DE3)
T1 sequence (Q13526 with tags, fused parts or gaps): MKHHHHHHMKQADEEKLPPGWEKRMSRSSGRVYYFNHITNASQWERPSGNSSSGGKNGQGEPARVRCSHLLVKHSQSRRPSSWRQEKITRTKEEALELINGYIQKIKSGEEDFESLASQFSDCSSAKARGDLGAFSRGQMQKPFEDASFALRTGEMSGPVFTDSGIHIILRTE
Source text: A small gap was opened on

fibrin hydrogel = experiment: Stiffness (storage modulus) of fibrin gel by rheometer
Method: To minimize sample evaporation at 37 °C, a tissue paper wet in HEPEs buffer (10 mM, pH 7.8) was placed inside the H-PTD chamber to increase the humidity. […] The cone and plate were treated with plasma for 5 min to increase the hydrophilicity of the metal surface.
Fibrin gel: Fibrinogen (Shanghai Laishi Xuezhipin Limited Company) was dissolved in PBS with a concentration of 22.2 mg mL^−1 overnight at room temperature with gentle shaking and aliquoted in protein low-binding tubes (45 µL per tube). […] Fifty microliters of thrombin (4 EU mL^−1 in PBS with 1.8 mM CaCl2) was added and pipetted up and down ten times. Then, it was transferred to the rheometer plate for measurement. […] For each condition, two independent experiments were performed (Fig. 1a and Supplementary Fig. 1).

Compound	effect on PACS in two-way mixed lymphocyte reaction [1]	cell surface PPIase activity k, Exp. 1 ([1]; healthy donors ab mixed) [s⁻¹]	cell surface PPIase activity k, Exp. 2 ([1]; healthy donors ab mixed) [s⁻¹]	cell surface PPIase activity k, Exp. 3 ([1]; healthy donors ab mixed) [s⁻¹]	cell surface PPIase activity k, Exp. 4 ([1]; healthy donors ab mixed) [s⁻¹]	cell surface PPIase activity k, Mean ([1]; healthy donors ab mixed) [s⁻¹]	cell surface PPIase activity k, Exp. 2 ([1]; healthy donors ac mixed) [s⁻¹]	cell surface PPIase activity k, Exp. 3 ([1]; healthy donors ac mixed) [s⁻¹]	cell surface PPIase activity k, Exp. 4 ([1]; healthy donors ac mixed) [s⁻¹]	cell surface PPIase activity k, Mean ([1]; healthy donors ac mixed) [s⁻¹]	cell surface PPIase activity k, Exp. 1 ([1]; healthy donors ad mixed) [s⁻¹]	cell surface PPIase activity k, Exp. 3 ([1]; healthy donors ad mixed) [s⁻¹]	cell surface PPIase activity k, Exp. 4 ([1]; healthy donors ad mixed) [s⁻¹]	cell surface PPIase activity k, Mean ([1]; healthy donors ad mixed) [s⁻¹]	cell surface PPIase activity k, Exp. 1 ([1]; healthy donors bc mixed) [s⁻¹]	cell surface PPIase activity k, Exp. 3 ([1]; healthy donors bc mixed) [s⁻¹]	cell surface PPIase activity k, Exp. 4 ([1]; healthy donors bc mixed) [s⁻¹]	cell surface PPIase activity k, Mean ([1]; healthy donors bc mixed) [s⁻¹]	cell surface PPIase activity k, Exp. 1 ([1]; healthy donors bd mixed) [s⁻¹]	cell surface PPIase activity k, Exp. 2 ([1]; healthy donors bd mixed) [s⁻¹]	also measured
CO[C@H]1C[C@@H]2CC[C@@H](C)[C@@](O)(O2)C(=O)C(=O)N2CCCC[C@H]2C(=O)O[C@H]([C@H](C)C[C@@H]2CC[C@@H](O)[C@H](OC)C2)CC(=O)[C@H](C)/C=C(\C)[C@@H](O)[C@@H](OC)C(=O)[C@H](C)C[C@H](C)/C=C/C=C/C=C/1C [rapamycin]	recover PACS	0.00035	0.00038	0.00034	0.0003	0.0003425	0.00041	0.00046	0.00043	0.0004333	0.00034	0.00027	0.00037	0.000315	0.00037	0.00037	0.00034	0.00036	0.00043	0.0005	cell surface PPIase activity k, Exp. 2 ([1]; healthy donors ad mixed): 0.00028 s⁻¹; cell surface PPIase activity k, Exp. 3 ([1]; healthy donors bd mixed): 0.00053 s⁻¹; cell surface PPIase activity k, Exp. 4 ([1]; healthy donors bd mixed): 0.00054 s⁻¹; cell surface PPIase activity k, Mean ([1]; healthy donors bd mixed): 0.0005 s⁻¹; cell surface PPIase activity k, Exp. 1 ([1]; healthy donors cd mixed): 0.00036 s⁻¹; cell surface PPIase activity k, Exp. 2 ([1]; healthy donors cd mixed): 0.00026 s⁻¹; cell surface PPIase activity k, Exp. 3 ([1]; healthy donors cd mixed): 0.00026 s⁻¹; cell surface PPIase activity k, Exp. 4 ([1]; healthy donors cd mixed): 0.0002 s⁻¹; cell surface PPIase activity k, Mean ([1]; healthy donors cd mixed): 0.00027 s⁻¹
C=CC[C@@H]1/C=C(\C)C[C@H](C)C[C@H](OC)[C@H]2O[C@@](O)(C(=O)C(=O)N3CCCC[C@H]3C(=O)O[C@H](/C(C)=C/[C@@H]3CC[C@@H](O)[C@H](OC)C3)[C@H](C)[C@@H](O)CC1=O)[C@H](C)C[C@@H]2OC [FK506]	recover PACS	0.00026	0.00025	0.00019	0.00029	0.0002475	0.00014	0.00019	0.00016	0.0001625	0.00016	0.00017	0.00015	0.00016	0.00038	0.00031	0.00036	0.000335	0.00021	0.00026	cell surface PPIase activity k, Exp. 1 ([1]; healthy donors ac mixed): 0.00016 s⁻¹; cell surface PPIase activity k, Exp. 2 ([1]; healthy donors bc mixed): 0.00029 s⁻¹; cell surface PPIase activity k, Exp. 4 ([1]; healthy donors bd mixed): 0.00031 s⁻¹; cell surface PPIase activity k, Mean ([1]; healthy donors bd mixed): 0.00026 s⁻¹; cell surface PPIase activity k, Exp. 1 ([1]; healthy donors cd mixed): 0.00017 s⁻¹; cell surface PPIase activity k, Exp. 2 ([1]; healthy donors cd mixed): 0.00019 s⁻¹; cell surface PPIase activity k, Exp. 4 ([1]; healthy donors cd mixed): 0.00018 s⁻¹; cell surface PPIase activity k, Mean ([1]; healthy donors cd mixed): 0.00018 s⁻¹; effect on viscosity of cell/fibrinogen mixture ([2]; Jurkat T lymphocyte and fibrinogen, shear rate 100-1000 s^-1): reduce the viscosity; effect on viscosity of cells in PBS or fibrinogen solution ([2]; Jurkat cells in PBS alone or fibrinogen solution alone): neither CsA nor FK506 has an effect
O=P(O)(O)O [PO4-, inorganic phosphate, reference compound]																					Pin catalyzing cis to trans isomerization rate k, Exp. 1 (Pin1; 25 nM Pin1 + 50 mM PO4-): 0.0025 s⁻¹; Pin catalyzing cis to trans isomerization rate k, Exp. 3 (Pin1; 25 nM Pin1 + 50 mM PO4-): 0.00169 s⁻¹; Pin catalyzing cis to trans isomerization rate k, Mean (Pin1; 25 nM Pin1 + 50 mM PO4-): 0.00212 s⁻¹; effect on Pin1 activity (Pin1; 50 mM): inhibited
Pin1: recombinant His-Pin1, parvulin family PPIase																					Pin catalyzing cis to trans isomerization rate k, Exp. 1 (Pin1; 6.25 nM Pin1): 0.00224 s⁻¹; Pin catalyzing cis to trans isomerization rate k, Exp. 2 (Pin1; 6.25 nM Pin1): 0.00228 s⁻¹; Pin catalyzing cis to trans isomerization rate k, Exp. 3 (Pin1; 6.25 nM Pin1): 0.00191 s⁻¹; Pin catalyzing cis to trans isomerization rate k, Mean (Pin1; 6.25 nM Pin1): 0.00214 s⁻¹; Pin catalyzing cis to trans isomerization rate k, Exp. 1 (Pin1; 12.5 nM Pin1): 0.00419 s⁻¹; Pin catalyzing cis to trans isomerization rate k, Exp. 2 (Pin1; 12.5 nM Pin1): 0.00424 s⁻¹; Pin catalyzing cis to trans isomerization rate k, Exp. 3 (Pin1; 12.5 nM Pin1): 0.00418 s⁻¹; Pin catalyzing cis to trans isomerization rate k, Mean (Pin1; 12.5 nM Pin1): 0.0042 s⁻¹; Pin catalyzing cis to trans isomerization rate k, Exp. 1 (Pin1; 25 nM Pin1): 0.00841 s⁻¹; Pin catalyzing cis to trans isomerization rate k, Exp. 2 (Pin1; 25 nM Pin1): 0.00868 s⁻¹; Pin catalyzing cis to trans isomerization rate k, Exp. 3 (Pin1; 25 nM Pin1): 0.00853 s⁻¹; Pin catalyzing cis to trans isomerization rate k, Mean (Pin1; 25 nM Pin1): 0.00854 s⁻¹
CypA R55A: inactive mutant CypA R55A (a gift from Gunter Fischer)																					effect on fibrin gelation as compared to the wild-type CypA (fibrin hydrogel): remarkably reduced
